From ChEMBL document CHEMBL1201862, “PubChem BioAssay data set” (2004)
Calls of active or inactive are those of the source.

Assays:
[1] = NIH-3T3 fibroblast cytotoxicity, dose response, cytotoxicity control, cell-based, fluorescence, Alamar Blue, secondary assay (AID 2327); assay type: functional;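 also: NIH-3T3 mouse fibroblasts cultured with fluconazole at 8 µg/mL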
[2] = HEp-2 cell cytotoxicity, dose response, cytotoxicity control for RSV inhibitor project, HTS (AID 2410); assay type: functional; settings: human respiratory syncytial virus
[3] = C. albicans growth with fluconazole, confirmation, fluorescence, retest (AID 2467); assay type: functional, cell-based
[4] = target: Heat shock protein HSP 90-alpha (Homo sapiens, UniProt P07900); assay type: functional, organism-based
[5] = system: Vero; test: cells; assay type: functional; settings: Chlorocebus sabaeus
[6] = inhibitors of intracellular T. cruzi replication, confirmation, NIH3T3 host cells, beta-gal luminescence (AID 2044); assay type: functional, cell-based;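 also: intracellular parasites grown in NIH/3T3 mouse fibroblasts as host cells; luminescent beta-galactosidase reporter signal from transgenic T. cruzi replicating inside host cells; inhibitors lower the luminescence signal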
[7] = cytotoxicity toward NIH3T3 fibroblasts, dose response, counter-screen, cell-based, ATP luminescence, mouse fibroblasts (AID 2010); assay type: functional;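 also: cells exposed to compound for about 90 hours before reading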
[8] = target: T1, Leucine aminopeptidase (Plasmodium falciparum 3D7, UniProt Q8IL11); test: P. falciparum M17LAP inhibitors, primary screen, biochemical, fluorogenic H-Leu-NHMec substrate, 1536-well (AID 1619); assay type: functional
T1 sequence (Q8IL11 whole entry): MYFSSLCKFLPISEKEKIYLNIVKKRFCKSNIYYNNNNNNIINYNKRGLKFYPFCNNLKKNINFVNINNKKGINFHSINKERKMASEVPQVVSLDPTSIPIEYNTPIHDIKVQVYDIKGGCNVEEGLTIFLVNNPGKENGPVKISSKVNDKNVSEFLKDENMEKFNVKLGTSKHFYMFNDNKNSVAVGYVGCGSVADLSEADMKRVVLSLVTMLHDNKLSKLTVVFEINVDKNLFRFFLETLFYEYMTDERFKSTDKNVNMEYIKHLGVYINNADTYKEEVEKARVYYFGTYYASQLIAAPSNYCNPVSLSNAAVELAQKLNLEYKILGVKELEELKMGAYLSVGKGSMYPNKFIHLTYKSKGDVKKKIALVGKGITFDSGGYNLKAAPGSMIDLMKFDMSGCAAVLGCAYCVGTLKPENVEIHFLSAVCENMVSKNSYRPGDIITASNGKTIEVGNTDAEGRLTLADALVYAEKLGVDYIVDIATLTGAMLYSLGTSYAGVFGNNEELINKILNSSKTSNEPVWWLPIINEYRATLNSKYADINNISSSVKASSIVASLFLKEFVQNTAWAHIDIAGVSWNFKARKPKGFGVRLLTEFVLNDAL

[9] = target: T2, Aminopeptidase N (Plasmodium falciparum FcB1/Columbia, UniProt O96935); test: P. falciparum M1AAP inhibitors, biochemical, fluorogenic H-Leu-NHMec substrate, 1536-well (AID 1445); design: species or system Plasmodium falciparum 3D7, 3D7
T2 sequence (O96935 whole entry): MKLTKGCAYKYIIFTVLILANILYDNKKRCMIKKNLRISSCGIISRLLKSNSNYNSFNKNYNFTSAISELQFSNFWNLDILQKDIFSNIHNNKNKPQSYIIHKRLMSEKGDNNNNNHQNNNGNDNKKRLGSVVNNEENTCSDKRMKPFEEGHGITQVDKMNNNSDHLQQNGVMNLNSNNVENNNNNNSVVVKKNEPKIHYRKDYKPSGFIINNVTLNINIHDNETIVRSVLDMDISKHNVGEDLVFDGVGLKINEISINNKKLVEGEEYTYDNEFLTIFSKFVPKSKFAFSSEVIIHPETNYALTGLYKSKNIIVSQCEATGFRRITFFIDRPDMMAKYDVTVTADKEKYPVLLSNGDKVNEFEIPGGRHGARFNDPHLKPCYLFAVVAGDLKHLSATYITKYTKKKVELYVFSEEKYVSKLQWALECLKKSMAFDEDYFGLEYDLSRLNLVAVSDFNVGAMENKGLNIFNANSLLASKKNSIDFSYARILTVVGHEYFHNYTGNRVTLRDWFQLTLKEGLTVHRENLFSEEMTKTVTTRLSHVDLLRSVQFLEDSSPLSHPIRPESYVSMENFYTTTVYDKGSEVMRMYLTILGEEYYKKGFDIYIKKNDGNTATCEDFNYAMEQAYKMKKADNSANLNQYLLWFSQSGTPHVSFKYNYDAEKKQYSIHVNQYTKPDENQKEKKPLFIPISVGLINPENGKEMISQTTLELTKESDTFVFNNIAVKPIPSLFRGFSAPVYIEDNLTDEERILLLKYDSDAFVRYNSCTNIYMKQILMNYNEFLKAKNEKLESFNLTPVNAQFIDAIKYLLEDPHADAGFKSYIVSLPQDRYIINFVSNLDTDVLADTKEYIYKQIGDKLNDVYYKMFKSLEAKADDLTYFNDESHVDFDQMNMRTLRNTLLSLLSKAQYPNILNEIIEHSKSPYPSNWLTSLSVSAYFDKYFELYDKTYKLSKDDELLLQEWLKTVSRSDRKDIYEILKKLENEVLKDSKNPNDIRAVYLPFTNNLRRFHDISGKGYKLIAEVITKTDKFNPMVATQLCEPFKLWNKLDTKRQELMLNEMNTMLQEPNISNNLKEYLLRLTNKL

[10] = target: T3, Heat shock factor protein 1 (Mus musculus, UniProt P38532); test: inhibition of MG132-induced HSE-luciferase signal, confirmation, cell-based, NIH3T3, luminescence, dose retest (AID 2382); assay type: functional;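 also: NIH3T3 fibroblasts with HSF1-driven luciferase reporter stressed by proteasome inhibitor MG132; luminescence from HSF1-driven luciferase expression after 8 hours of MG132 stress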
T3 sequence (P38532 whole entry): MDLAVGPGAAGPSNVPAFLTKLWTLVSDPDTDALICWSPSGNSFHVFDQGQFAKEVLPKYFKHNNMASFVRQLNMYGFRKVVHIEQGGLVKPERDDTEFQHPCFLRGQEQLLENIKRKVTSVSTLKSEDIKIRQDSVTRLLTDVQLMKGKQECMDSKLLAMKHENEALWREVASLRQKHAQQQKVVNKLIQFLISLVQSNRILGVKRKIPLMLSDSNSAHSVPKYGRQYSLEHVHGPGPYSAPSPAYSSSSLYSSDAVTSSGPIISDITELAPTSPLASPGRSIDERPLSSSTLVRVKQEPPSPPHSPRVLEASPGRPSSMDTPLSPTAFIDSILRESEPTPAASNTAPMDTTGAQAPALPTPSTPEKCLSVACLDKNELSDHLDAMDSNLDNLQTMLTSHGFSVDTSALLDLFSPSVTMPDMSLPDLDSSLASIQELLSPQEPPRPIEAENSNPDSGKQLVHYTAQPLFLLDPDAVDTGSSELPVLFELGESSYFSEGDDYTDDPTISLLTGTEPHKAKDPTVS

[11] = target: Cytochrome P450 2D6 (Homo sapiens, UniProt P10635);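 also: CYP2D6 member of a cytochrome P450 panel assay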
Chain of Cytochrome P450 2D6 (P10635 whole entry): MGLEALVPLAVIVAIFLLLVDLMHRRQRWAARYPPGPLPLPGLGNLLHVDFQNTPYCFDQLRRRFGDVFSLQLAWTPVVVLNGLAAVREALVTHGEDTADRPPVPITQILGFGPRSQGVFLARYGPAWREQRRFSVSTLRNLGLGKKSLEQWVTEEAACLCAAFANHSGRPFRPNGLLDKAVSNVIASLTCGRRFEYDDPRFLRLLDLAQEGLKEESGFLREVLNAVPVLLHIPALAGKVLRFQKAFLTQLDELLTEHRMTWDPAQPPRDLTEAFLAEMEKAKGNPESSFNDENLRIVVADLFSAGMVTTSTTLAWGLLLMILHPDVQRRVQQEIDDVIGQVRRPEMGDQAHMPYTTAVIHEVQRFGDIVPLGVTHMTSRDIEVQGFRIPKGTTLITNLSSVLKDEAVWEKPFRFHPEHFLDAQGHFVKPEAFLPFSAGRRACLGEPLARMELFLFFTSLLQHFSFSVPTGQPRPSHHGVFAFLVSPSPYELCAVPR

[12] = microbe, parasite or virus in culture; assay type: functional; settings: Mycobacterium tuberculosis
[13] = inhibitors of clade B AD8 Env fusion, dose response, cell-based, cherry-pick (AID 652062); assay type: functional;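 also: luciferase signal from cell-cell fusion driven by HIV-1 clade B AD8 Env; potency is for inhibitors of fusion seen as a drop in luminescence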
[14] = target: Glucose-6-phosphate 1-dehydrogenase (Homo sapiens, UniProt P11413); test: human G6PD enzyme inhibitors, dose response, selectivity assay for P. falciparum G6PD inhibitor project, biochemical, fluorescence (AID 504792); assay type: functional
Chain of Glucose-6-phosphate 1-dehydrogenase (P11413 whole entry): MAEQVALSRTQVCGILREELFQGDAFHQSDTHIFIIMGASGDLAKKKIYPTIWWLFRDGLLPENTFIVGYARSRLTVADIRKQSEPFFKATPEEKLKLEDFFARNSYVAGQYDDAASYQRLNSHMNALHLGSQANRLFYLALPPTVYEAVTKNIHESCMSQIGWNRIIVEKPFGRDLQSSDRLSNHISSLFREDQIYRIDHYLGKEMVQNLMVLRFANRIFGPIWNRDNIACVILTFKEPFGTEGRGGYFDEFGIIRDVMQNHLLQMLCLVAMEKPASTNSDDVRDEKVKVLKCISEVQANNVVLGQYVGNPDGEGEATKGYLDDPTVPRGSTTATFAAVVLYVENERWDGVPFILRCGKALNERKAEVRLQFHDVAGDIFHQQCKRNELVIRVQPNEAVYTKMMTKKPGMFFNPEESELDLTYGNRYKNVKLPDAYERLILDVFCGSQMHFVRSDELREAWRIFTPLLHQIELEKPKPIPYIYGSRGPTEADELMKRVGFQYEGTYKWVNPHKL

[15] = target: T4, Corticotropin-releasing factor receptor 2/Corticotropin-releasing factor-binding protein (Homo sapiens, UniProt P24387+Q13324); test: Dose Response confirmation of uHTS hits for small molecule antagonists of the CRF-binding protein and CRF-R2 receptor complex.; assay type: functional; settings: read-out: IC50_Mean
T4 sequence (Q13324 whole entry): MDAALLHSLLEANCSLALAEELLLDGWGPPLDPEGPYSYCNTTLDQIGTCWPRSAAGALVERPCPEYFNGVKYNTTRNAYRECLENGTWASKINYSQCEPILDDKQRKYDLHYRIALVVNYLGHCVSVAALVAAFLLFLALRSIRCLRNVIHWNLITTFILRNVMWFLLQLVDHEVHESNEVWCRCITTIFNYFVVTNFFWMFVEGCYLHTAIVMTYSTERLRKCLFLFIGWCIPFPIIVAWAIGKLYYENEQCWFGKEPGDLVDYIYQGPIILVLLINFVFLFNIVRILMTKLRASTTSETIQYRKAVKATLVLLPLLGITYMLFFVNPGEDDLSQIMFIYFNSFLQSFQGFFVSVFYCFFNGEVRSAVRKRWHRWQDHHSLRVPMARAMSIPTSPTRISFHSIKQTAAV
T4 sequence (P24387 whole entry): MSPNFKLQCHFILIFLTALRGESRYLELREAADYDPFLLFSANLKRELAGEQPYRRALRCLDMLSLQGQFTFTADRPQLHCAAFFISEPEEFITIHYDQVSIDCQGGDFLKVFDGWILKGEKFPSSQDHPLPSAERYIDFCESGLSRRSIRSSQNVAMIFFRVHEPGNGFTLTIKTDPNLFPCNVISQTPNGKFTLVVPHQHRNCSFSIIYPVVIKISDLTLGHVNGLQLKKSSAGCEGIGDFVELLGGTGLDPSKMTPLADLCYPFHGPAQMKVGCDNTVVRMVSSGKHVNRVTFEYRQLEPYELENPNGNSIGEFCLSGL

[16] = target: T4, Corticotropin-releasing factor receptor 2/Corticotropin-releasing factor-binding protein; test: activators of CRF receptor 2 with binding protein – uHTS hits, confirmation (AID 602473); assay type: functional; settings: read-out: EC50_Mean
[17] = growth suppression of PTEN-null colon cells, dose response, cell-based, HCT116 PTEN knockout (AID 1047); assay type: functional;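 also: HCT116 colon tumor cells with PTEN knocked out; cells exposed to compound for 60 hours before readout; potency for loss of cell viability measured by luminescence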
[18] = growth suppression of beta-catenin-knockout colon cells, dose response, cell-based, HCT116, human colon tumor (AID 1045); assay type: functional;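 also: HCT116 colon tumor cells with beta catenin knocked out; cells exposed to compound for 60 hours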
[19] = target: T5, Coagulation factor XII (Homo sapiens, UniProt P00748); assay type: functional;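 also: activated factor XIIa alpha cleaving a fluorogenic AMC peptide substrate; inhibitor potency from loss of enzyme activity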
T5 sequence (P00748 whole entry): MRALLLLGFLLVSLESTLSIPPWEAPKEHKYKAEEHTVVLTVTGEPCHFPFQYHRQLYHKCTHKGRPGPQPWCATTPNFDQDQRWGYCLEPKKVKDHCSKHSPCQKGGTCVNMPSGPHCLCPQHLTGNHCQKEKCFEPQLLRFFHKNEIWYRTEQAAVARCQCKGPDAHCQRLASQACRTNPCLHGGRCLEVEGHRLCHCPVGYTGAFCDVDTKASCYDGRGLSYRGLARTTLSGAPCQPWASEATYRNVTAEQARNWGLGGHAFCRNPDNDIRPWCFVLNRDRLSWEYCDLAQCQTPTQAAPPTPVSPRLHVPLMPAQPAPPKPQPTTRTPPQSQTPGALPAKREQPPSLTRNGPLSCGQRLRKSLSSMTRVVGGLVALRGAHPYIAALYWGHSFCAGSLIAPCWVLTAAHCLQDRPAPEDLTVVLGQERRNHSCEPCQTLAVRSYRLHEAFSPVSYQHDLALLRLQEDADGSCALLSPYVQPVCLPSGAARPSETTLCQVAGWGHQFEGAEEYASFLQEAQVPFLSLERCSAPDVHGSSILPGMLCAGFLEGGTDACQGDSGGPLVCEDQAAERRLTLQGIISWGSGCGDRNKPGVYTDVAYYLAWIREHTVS

[20] = cells; assay type: functional
[21] = Luminescence Cell-Based Dose Retest to Confirm Inhibitors of Cancer Stem Cells. [Related pubchem assays (depositor defined):AID2717, AID2721]; assay type: functional; settings: Homo sapiens
[22] = target: Cytochrome P450 2C9 (Homo sapiens, UniProt P11712)
Chain of Cytochrome P450 2C9 (P11712 whole entry): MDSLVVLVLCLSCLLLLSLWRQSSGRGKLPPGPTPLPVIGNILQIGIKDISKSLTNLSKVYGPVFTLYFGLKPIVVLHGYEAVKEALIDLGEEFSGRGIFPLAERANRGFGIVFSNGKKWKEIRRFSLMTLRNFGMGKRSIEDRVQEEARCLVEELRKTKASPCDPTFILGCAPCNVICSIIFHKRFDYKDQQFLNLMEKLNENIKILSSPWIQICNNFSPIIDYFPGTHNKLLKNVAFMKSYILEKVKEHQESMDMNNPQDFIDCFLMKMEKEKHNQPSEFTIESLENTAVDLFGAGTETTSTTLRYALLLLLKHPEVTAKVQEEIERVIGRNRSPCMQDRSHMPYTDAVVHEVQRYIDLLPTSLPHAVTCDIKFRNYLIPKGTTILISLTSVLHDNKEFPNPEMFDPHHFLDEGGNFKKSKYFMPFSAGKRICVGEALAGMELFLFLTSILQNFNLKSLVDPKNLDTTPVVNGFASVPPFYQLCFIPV

[23] = system: HEK293; test: inhibitors of LMP1-driven NF-kB reporter, dose response, cell-based, HEK293, luciferase, cherry-pick (AID 588343); assay type: functional; settings: Homo sapiens

## O=C(N/N=C/c1ccccn1)c1cc(-c2ccc(Cl)cc2)nc2ccccc12
[1]
  EC50: 20.6 µM (active)
[2]
  CC50: 11.8 µM (active)
[3]
  EC50: 1.06 µM (active)
[4]
  AC50: 7.9 µM (active)
[5]
  CC50: 14.2 µM (active)

## COc1c(Cl)cc(Cl)cc1C(=O)Nc1ccc(CN2CCCCC2)cc1
[6]
  EC50: 3 µM (active)
[7]
  EC50: > 60 µM (not active)
[5]
  CC50: > 25 µM (active)

## CCCCOc1ccc(CC(=O)NO)cc1 [BUFEXAMAC]
[8]
  IC50: < 1 µM (active)
[9]
  IC50: 81.2 µM (active)
[10]
  EC50: > 195 µM (not active)
[11]
  AC50: 10 µM (inconclusive)

## O=C(CSc1nnc(NC(=O)c2c(F)cccc2F)s1)Nc1ccc(F)cc1
[8]
  IC50: 32.3 µM (active)

## CCC(=O)NC(=S)Nc1ccc(NC(=O)COc2ccc(Cl)cc2Cl)cc1
[12]
  CC50: 39.6 µM (active)

## Cc1onc(-c2ccccc2)c1C(=O)Nc1ccc(Br)cc1Cl
[13]
  AC50: 3.43 µM (active)

## O=C(Nc1nnc(S(=O)(=O)N2CCCCC2)s1)c1ccc(Cl)cc1
[14]
  IC50: > 80 µM (inactive)
[15]
  IC50: > 47.1 µM (inactive)
[16]
  EC50: > 53 µM (inactive)

## O=C(CCS(=O)(=O)c1ccccc1)Nc1nc2c(s1)COc1ccccc1-2
[17]
  EC50: 18.7 µM (active)
[18]
  EC50: 14.1 µM (active)
[5]
  CC50: > 25 µM (active)

## CC(c1ccccc1)N1CCN(C(=O)CCl)CC1 (stereo not drawn)
[10]
  EC50: 43.8 µM (active)
[12]
  CC50: 17.9 µM (active)
[5]
  CC50: 9.03 µM (active)

## O=S(=O)(c1ccc(NC(=S)NC23CC4CC(CC(C4)C2)C3)cc1)N1CCCCC1
[5]
  CC50: 8.76 µM (active)

## COc1cc(C(=O)ON=C2C=C(C)C(=O)C(C)=C2)cc(OC)c1OC
[14]
  IC50: > 80 µM (inactive)
[19]
  IC50: 0.533 µM (active)
[20]
  IC50: 40.2 µM (active)

## C=CCn1cccc(/C=C/C(=O)c2ccc(C(C)(C)C)cc2)c1=S
[12]
  CC50: 10.3 µM (active)
[17]
  EC50: 4.04 µM (active)
[18]
  EC50: 2.56 µM (active)
[21]
  AC50: 5.64 µM (active)

## Cc1ccc(C(=O)N/N=C/c2sc(=O)n(Cc3cccc(C(=O)O)c3)c2Cl)cc1
[8]
  IC50: 17.8 µM (active)
[22]
  AC50: 12.6 µM (inconclusive)

## CNS(=O)(=O)c1cccc(C(=O)OCC(=O)c2ccc3c(c2)OCCO3)c1
[23]
  AC50: 8.57 µM (active)

## N#Cc1ncc(N=Cc2ccc(N(CCCl)CCCl)cc2)s1
[23]
  AC50: 1.22 µM (active)

## O=C(O)c1ccc(N/N=C/c2ccc(C(F)(F)F)cc2)cc1
[8]
  IC50: 46.3 µM (active)

## CSc1ccc(N/N=C(/C#N)S(=O)(=O)C(C)(C)C)cc1
[8]
  IC50: 30.6 µM (active)
